Laboratory results as given in publication PMC9370035, “Identification of 3-Oxindole Derivatives as Small Molecule HIV-1 Inhibitors Targeting Tat-Mediated Viral Transcription” (Molecules, 2022).

What was measured:
[1] = Cell viability (resazurin-based PrestoBlue) in parallel with infectivity assay; settings: human, TZM-bl cells; for viability at 48 h, 3 µM: with infection of HIV-1 NL4-3 at MOI of 1; for CC50 at 48 h: serial dilution starting from 100 μM, read-out: CC50 (concentration that reduces cell viability by 50%)
[2] = system: HIV-1NL4-3; experiment: HIV-1 infectivity assay in TZM-bl cells (F-Luc under HIV-1 LTR); format: cell-based; settings: for inhibition at 3 µM / IC50: Human immunodeficiency virus 1, NL43, TZM-bl; for inhibition at 3 µM: 48 h, read-out: Inhibition of HIV-1 Infectivity (%), TZM-bl cells, 3 μM, HIV-1 NL4-3 at MOI of 1, 48 h; for IC50: read-out: IC50 (inhibition of HIV-1 infection); for Inhibition ratio of HIV-1 infectivity, dose response / Inhibition of HIV-1 Infectivity (%): TZM-bl cells; for Inhibition ratio of HIV-1 infectivity, dose response: HIV-1NL4-3, up to a concentration of 25 μM; for Inhibition of HIV-1 Infectivity (%): 3 μM, HIV-1 NL4-3 at MOI of 1, 48 h
Description: TZM-bl cells (also referred as JC53BL-13) expressing human CD4, CXCR4, and CCR5 in order to facilitate HIV-1 infection, which contain the firefly luciferase (F-Luc) gene under the control of HIV-1 long terminal repeat (LTR) promoter was used to determine inhibitory effect of the compounds on HIV-1 infection, as described previously with minor modifications. […] Without replacement of a culture medium, the cells were then infected with the HIV-1NL4-3 strain at a multiplicity of infection (MOI) of 1 to determine the exact inhibitory effect of compounds on a single round infection. After 48 h, the inhibitory effect of the compounds was determined using a Bright Glo luciferase assay kit (Promega). The infectivity data are presented as a percentage relative to the DMSO control (vehicle). The inhibitory effects of the compounds on viral replication were determined with some minor modifications, as described previously. […] PBMCs were pre-activated with phytohemagglutinin M (PHA-M) for 3 days. The pre-activated 4 × 10^5 of PBMCs were washed with fresh media to remove excess PHA-M and then infected with HIV-1NL4-3 or HIV-1AD8 as that of A3.01 infection.

[3] = system: HIV-1NL4-3; experiment: HIV-1 replication assay (p24 […]) in A3.01 T cell line; format: cell-based; settings: A3.01 cells, HIV-1NL4-3 MOI 0.1, 1.5 μM, 72 h
Method: (§1) TZM-bl cells (also referred as JC53BL-13) expressing human CD4, CXCR4, and CCR5 in order to facilitate HIV-1 infection, which contain the firefly luciferase (F-Luc) gene under the control of HIV-1 long terminal repeat (LTR) promoter was used to determine inhibitory effect of the compounds on HIV-1 infection, as described previously with minor modifications. In brief, 1 × 10^4 cells were cultured in 96-well plates for 24 h and then treated with compounds at a final concentration of 3 μM (Figure 1A) or with 1:2 serially diluted compounds at concentrations ranging from 0 to 25 μM (dose-response assay; Figure 1B and Table 2). Without replacement of a culture medium, the cells were then infected with the HIV-1NL4-3 strain at a multiplicity of infection (MOI) of 1 to determine the exact inhibitory effect of compounds on a single round infection. After 48 h, the inhibitory effect of the compounds was determined using a Bright Glo luciferase assay kit (Promega). The infectivity data are presented as a percentage relative to the DMSO control (vehicle). The inhibitory effects of the compounds on viral replication were determined with some minor modifications, as described previously. In brief, 5 × 10^4 cells/ well of A3.01 cells were infected with HIV-1NL4-3 at an MOI of 0.1 with the spinoculation at 300 g for 2 h at 25 °C. PBMCs were pre-activated with phytohemagglutinin M (PHA-M) for 3 days. The pre-activated 4 × 10^5 of PBMCs were washed with fresh media to remove excess PHA-M and then infected with HIV-1NL4-3 or HIV-1AD8 as that of A3.01 infection. After infection, the infectious media were replaced with fresh media (supplemented with international 10 units (IU)/mL of IL-2 for PBMCs containing 1.5 μM of compounds. At 72 h after infection, the inhibitory effect of the compounds on viral replication was determined by measuring the amount of p24, an HIV capsid protein, using an HIV-1 p24 […]™ kit (PerkinElmer, Waltham, MA, USA). Cell viability was determined by using the resazurin-based PrestoBlue™ cell viability reagent (Thermo Fisher Scientific, Waltham, MA, USA) according to the manufacturer’s protocols.

[4] = system: HIV-1NL4-3; experiment: HIV-1 replication assay (p24 […]) in PBMCs, CXCR4 tropic strain; format: cell-based; settings: HIV-1NL4-3 MOI 0.1, 1.5 μM, 72 h
Method: as §1

[5] = system: Tat-mediated HIV-1 transcription; experiment: microbe, parasite or virus in culture; format: cell-based; settings: for Inhibition of Tat-induced HIV-1 transcription, concentration response / Tat-induced transcriptional activity (F-Luc): bl-DTR cells; for Inhibition of Tat-induced HIV-1 transcription, concentration response: 0 to 25 μM; for Tat-induced transcriptional activity (F-Luc): 3 μM, doxycycline 50 ng/mL, 24 h
Method: (§2) bl-DTR (TZM-bl-derived dual Tat reporter) cells derived from TZM-bl cells by insertion of two doxycycline-inducible lentiviral vector-expressing flag-tagged tat and Renilla-luciferase (R-Luc) genes were used to determine simultaneously both activities of Tat-mediated HIV-1 transcription and general cellular transcription, as described previously. Determination of the inhibitory effect of the compounds on Tat-mediated transcription was performed as described previously. In brief, 1 × 10^4 of bl-DTR cells cultured in 96-well plates were treated with compounds at a final concentration of 3 μM (Figure 3C) or with 1:2 serially diluted compounds at concentrations ranging from 0 to 25 μM (Figure 4 and Table 3). Subsequently, doxycycline was treated at a final concentration of 50 ng/mL to induce Tat-mediated F-Luc and R-Luc. At 24 h after treatment, the activities of F-Luc and R-Luc were determined by using a Dual-Glo™ luciferase assay system (Promega, Madison, WI, USA) according to the manufacturer’s protocols. The data are presented as a percentage relative to the DMSO control (vehicle) in the presence of doxycycline, and the experiment was performed in triplicate.

[6] = target: T1, HIV-1 integrase (Human immunodeficiency virus type 1 group M subtype B, UniProt P04585); experiment: HIV-1 integrase assay kit; format: biochemical; settings: 10 μM
T1 construct: purchased XpressBio, Frederick, MD, USA
Method: The integrase activity was determined using an HIV-1 integrase assay kit (XpressBio, Frederick, MD, USA), according to the manufacturer’s protocols. In brief, a 96-well plate coated with donor substrate (DS) DNA was blocked with blocking buffer for 30 min at 37 °C. One hundred μL of HIV-1 integrase diluted with 1:300 onto reaction buffer was added to the plate, and the plate was then incubated for 30 min at 37 °C. Subsequently, 50 μL of compounds were added to the plate at final concentrations of 10 and 20 μM. At 5 min after addition of compounds, 50 μL of target substrate DNA diluted at 1:100 was added to the plate and incubated for 30 min at 37 °C. The plate was washed and then incubated with 100 μL of horse radish peroxidase antibody solution for 30 min at 37 °C. Integrase activity was assessed by measuring the peroxidase activity reacted with 3,3′,5,5′-tetramethylbenzidine substrate at optical density […]. The experiment was performed in triplicate.

[7] = system: general cellular transcription; experiment: R-Luc activity in bl-DTR cells (general cellular transcription); format: cell-based; settings: high dosages (12.5 μM and 25 μM)
Method: as §2

[8] = system: TZM-bl cells; experiment: Cell viability (resazurin-based PrestoBlue) in parallel with infectivity assay; settings: 3 μM, with infection of HIV-1 NL4-3 at MOI of 1

Cc1cn([C@H]2C[C@H](N=[N+]=[N-])[C@@H](CO)O2)c(=O)[nH]c1=O [AZT, azidothymidine, reference compound]
viability at 48 h, 3 µM [1]: 94.8 ± 7.21% | CC50 at 48 h [1]: > 100 µM | inhibition at 3 µM [2]: 99.65 ± 0.048% | IC50 [2]: 0.079 ± 0.0237 µM

CCOC(=O)C1(C/C=C/Cl)Nc2cccc(C)c2C1=O (stereo not drawn) [Compound 6a, Ethyl (E)-2-(3-chloroallyl)-4-methyl-3-oxindole-2-carboxylate]
melting point: > 300 °C | Inhibitory effect on viral replication (p24) [3]: no inhibition | viability at 48 h, 3 µM [1]: 106 ± 9.33% | CC50 at 48 h [1]: 87.4 ± 12.7 µM | inhibition at 3 µM [2]: ~20% | IC50 [2]: 13.7 ± 2.55 µM | Inhibitory effect on viral replication (p24) [4]: no inhibition | IC50 ([5]; Human immunodeficiency virus 1, 24 h, read-out: IC50 (inhibition of Tat-mediated HIV-1 transcription)): 9.53 ± 0.48 µM

COC(=O)C1(C/C=C/Cl)Nc2ccc(OC)cc2C1=O (stereo not drawn) [Compound 6b, Methyl (E)-2-(3-chloroallyl)-5-methoxy-3-oxindole-2-carboxylate]
melting point: > 300 °C | Inhibitory effect on viral replication (p24) [3]: no inhibition | viability at 48 h, 3 µM [1]: 99.6 ± 14.2% | inhibition at 3 µM [2]: 0.55 ± 4.34% | Inhibitory effect on viral replication (p24) [4]: no inhibition

CCCC1(C(=O)OC)Nc2ccc(OC)cc2C1=O (stereo not drawn) [Compound 6c, Methyl 5-methoxy-3-oxo-2-propylindoline-2-carboxylate]
melting point: 117 to 118 °C | viability at 48 h, 3 µM [1]: 92.7 ± 5.77% | inhibition at 3 µM [2]: 16.2 ± 5.52%

C=CCC1(C(=O)OC)Nc2cc(C)cc(C)c2C1=O (stereo not drawn) [Compound 6h, Methyl 2-allyl-4,6-dimethyl-3-oxindole-2-carboxylate]
melting point: 147 °C | Inhibitory effect on viral replication (p24) [3]: no inhibition | viability at 48 h, 3 µM [1]: 107 ± 4.73% | inhibition at 3 µM [2]: 23.6 ± 4.46% | Inhibition ratio of HIV-1 infectivity, dose response [2]: did not show further increased inhibitory effect | Inhibitory effect on viral replication (p24) [4]: no inhibition

CCCC1(C(=O)OC)Nc2cc(C)cc(C)c2C1=O (stereo not drawn) [Compound 6i, Methyl 4,6-dimethyl-3-oxo-2-propylindoline-2-carboxylate]
melting point: 132 to 133 °C | Inhibitory effect on viral replication (p24) [3]: no inhibition | viability at 48 h, 3 µM [1]: 99.4 ± 8.83% | inhibition at 3 µM [2]: 9.15 ± 0.96% | Inhibitory effect on viral replication (p24) [4]: no inhibition

CCOC(=O)c1[nH]c2cccc(C)c2c1OC/C=C/Cl [Compound 7a, ethyl (e)-3-((3-chloroallyl)oxy)-4-methyl-1h-indole-2-carboxylate]
melting point: 226 °C | viability at 48 h, 3 µM [1]: 117 ± 2.7% | inhibition at 3 µM [2]: ~20% | Inhibition ratio of HIV-1 infectivity, dose response [2]: ~50% | Inhibition of Tat-induced HIV-1 transcription, concentration response [5]: do not affect

COC(=O)c1[nH]c2ccc(OC)cc2c1OC/C=C/Cl [Compound 7b, methyl (e)-3-((3-chloroallyl)oxy)-5-methoxy-1h-indole-2-carboxylate]
melting point: > 300 °C | viability at 48 h, 3 µM [1]: 110 ± 4.96% | inhibition at 3 µM [2]: ~20% | Inhibition ratio of HIV-1 infectivity, dose response [2]: ~50% | Inhibition of Tat-induced HIV-1 transcription, concentration response [5]: do not affect

C[C@@H]1CCO[C@H]2Cn3cc(C(=O)NCc4ccc(F)cc4F)c(=O)c(O)c3C(=O)N12 [DOL, dolutegravir]
Inhibition of integrase activity [6]: inhibited

Cc1nnc(C(=O)NC(C)(C)c2nc(C(=O)NCc3ccc(F)cc3)c(O)c(=O)n2C)o1 [RAL, raltegravir]
Inhibition of integrase activity [6]: inhibited

CC[C@H](CO)Nc1nc(NCc2ccccc2)c2ncn(C(C)C)c2n1 [seliciclib, Seliciclib, reference compound]
R-Luc activity [7]: decrease in R-Luc activity | Tat-induced transcriptional activity (F-Luc) [5]: specific inhibition

CC(C)[C@]12O[C@H]1[C@@H]1O[C@]13[C@]1(O[C@H]1C[C@H]1C4=C(CC[C@@]13C)C(=O)OC4)[C@@H]2O [triptolide, reference compound]
Tat-induced transcriptional activity (F-Luc) [5]: specific inhibition

Methyl (E)-2-(3-chloroallyl)-3-oxindole-2-carboxylate [Compound 6e]
Cell Viability (%) [8]: 95.66 ± 7.32% | Inhibition of HIV-1 Infectivity (%) [2]: 11.49 ± 5.66%

Methyl (E)-2-(3-chloroallyl)-5-methyl-3-oxindole-2-carboxylate [Compound 6d]
Cell Viability (%) [8]: 96.96 ± 9.15% | Inhibition of HIV-1 Infectivity (%) [2]: 0.00 ± 10.66% | Inhibition of Tat-induced HIV-1 transcription, concentration response [5]: did not inhibit
